# Earlier results as cited in patent US20190282540A1, “TARGETED DRUG DELIVERY” (NOXOPHARM LIMITED, priority 2016, published 2019).
# Legend:
# [1] = in vivo, following dietary challenge
# [2] = [14C] idronoxil given orally, target dose 20 mg/kg
# [3] = system: wide range of cancer cell types; conditions: fold relative to genistein
brain-to-blood ratio [1],SMILES,levels of isotope in the brain and spinal cord [2],potency as an anti-cancer agent compared to genistein [3],"conjugation (intravenously administered, second-pass liver metabolism)","conversion into water-soluble conjugates (orally administered, gut mucosa transferase activity and first-pass liver metabolism)"
0.04,O=c1c(-c2ccc(O)cc2)coc2cc(O)cc(O)c12 [genistein],–,–,–,–
–,"Oc1ccc(C2=Cc3ccc(O)cc3OC2)cc1 [Idronoxil, 2H-1-Benzopyran-7-0,1,3-(4-hydroxyphenyl)]",below the limit of reliable measurement,about 10 ×,completely conjugated,completely converted into water-soluble conjugates
